Experimental data from patent publication US7993916B2, “Methods for increasing definitive endoderm production” (Viacyte, Inc., priority 2007, dated 2011).

Tested on: hESCs (CyT203 p36)
Settings: EDTA 0.075 mM, PBS−/− wash, about 18 hr, activin A 100 ng/ml and Wnt3a 25 ng/ml, RPMI without FBS
Description: Cell cultures and culture conditions were substantially similar to that described above and in D'Amour et al. 2005 and 2006 supra. […] Samples of undifferentiated hESCs were taken prior to the start of the differentiation procedure. Plates were briefly washed with 2 ml of PBS either containing Ca^2+ or Mg^2+ or without Ca^2+ and Mg^2+ (PBS^−/−). In addition, the one plate which was washed with PBS^−/− also received ethylenediamine tetraacetic acid (EDTA) at 0.075 mM to reduce the concentration of Ca^2+ ions present in the media.

## O=C(O)CN(CCN(CC(=O)O)CC(=O)O)CC(=O)O [EDTA, ethylenediamine tetraacetic acid]
  increase in expression for the DE marker (CER): three-fold
  increase in gene expression for mesendoderm markers (BRACH, NODAL): two-fold
